Laboratory results taken from US20240360113A1, “AMINOARYL-INTEGRIN AGONISTS COMPOUNDS” (Texas Heart Institute, priority 2021, published 2024).

Assays:
[1] = target: T1, α4β1/VCAM-1 (Homo sapiens, UniProt P05556+P13612); assay: Static cell adhesion assay, Jurkat cells on VCAM-1 (VLA-4 agonist activity); assay type: cell-based; settings: EC50 relative to THI0349 (average 11 uM) run on the same plate; Jurkat cells, 50% FBS
T1 construct: The Jurkat (VCAM-1 assays) and HSB (ICAM-1 assays) cell lines were obtained from American Type Culture Collection; endogenous in cells; host or cells: Jurkat (ATCC)
T1 sequence (P13612 34-1032): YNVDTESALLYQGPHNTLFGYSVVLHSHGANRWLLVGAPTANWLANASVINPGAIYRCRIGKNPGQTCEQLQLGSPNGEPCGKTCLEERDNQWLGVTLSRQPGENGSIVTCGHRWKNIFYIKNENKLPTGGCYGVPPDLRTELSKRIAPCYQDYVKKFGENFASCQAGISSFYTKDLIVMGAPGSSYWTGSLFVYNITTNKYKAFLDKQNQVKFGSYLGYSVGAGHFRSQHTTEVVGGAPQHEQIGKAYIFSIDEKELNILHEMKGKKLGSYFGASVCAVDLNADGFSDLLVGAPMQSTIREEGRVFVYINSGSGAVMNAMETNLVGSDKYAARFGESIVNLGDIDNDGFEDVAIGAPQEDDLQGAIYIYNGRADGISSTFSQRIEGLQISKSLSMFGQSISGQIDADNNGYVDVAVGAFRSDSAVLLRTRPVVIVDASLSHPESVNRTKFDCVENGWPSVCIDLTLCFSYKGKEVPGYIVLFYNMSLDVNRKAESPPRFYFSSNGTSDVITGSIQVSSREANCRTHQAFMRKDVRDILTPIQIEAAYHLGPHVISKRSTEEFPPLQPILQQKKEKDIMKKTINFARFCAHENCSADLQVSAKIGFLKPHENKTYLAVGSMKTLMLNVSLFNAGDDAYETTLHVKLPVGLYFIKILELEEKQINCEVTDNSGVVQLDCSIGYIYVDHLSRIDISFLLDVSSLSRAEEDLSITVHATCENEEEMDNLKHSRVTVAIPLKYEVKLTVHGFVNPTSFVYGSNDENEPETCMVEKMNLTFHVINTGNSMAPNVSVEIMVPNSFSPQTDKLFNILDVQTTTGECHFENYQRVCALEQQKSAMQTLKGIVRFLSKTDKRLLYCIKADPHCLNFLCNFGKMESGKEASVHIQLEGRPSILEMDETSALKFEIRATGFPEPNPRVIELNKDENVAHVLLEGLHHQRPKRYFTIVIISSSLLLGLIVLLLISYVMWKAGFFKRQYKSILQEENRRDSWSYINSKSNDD
T1 sequence (P05556 21-798): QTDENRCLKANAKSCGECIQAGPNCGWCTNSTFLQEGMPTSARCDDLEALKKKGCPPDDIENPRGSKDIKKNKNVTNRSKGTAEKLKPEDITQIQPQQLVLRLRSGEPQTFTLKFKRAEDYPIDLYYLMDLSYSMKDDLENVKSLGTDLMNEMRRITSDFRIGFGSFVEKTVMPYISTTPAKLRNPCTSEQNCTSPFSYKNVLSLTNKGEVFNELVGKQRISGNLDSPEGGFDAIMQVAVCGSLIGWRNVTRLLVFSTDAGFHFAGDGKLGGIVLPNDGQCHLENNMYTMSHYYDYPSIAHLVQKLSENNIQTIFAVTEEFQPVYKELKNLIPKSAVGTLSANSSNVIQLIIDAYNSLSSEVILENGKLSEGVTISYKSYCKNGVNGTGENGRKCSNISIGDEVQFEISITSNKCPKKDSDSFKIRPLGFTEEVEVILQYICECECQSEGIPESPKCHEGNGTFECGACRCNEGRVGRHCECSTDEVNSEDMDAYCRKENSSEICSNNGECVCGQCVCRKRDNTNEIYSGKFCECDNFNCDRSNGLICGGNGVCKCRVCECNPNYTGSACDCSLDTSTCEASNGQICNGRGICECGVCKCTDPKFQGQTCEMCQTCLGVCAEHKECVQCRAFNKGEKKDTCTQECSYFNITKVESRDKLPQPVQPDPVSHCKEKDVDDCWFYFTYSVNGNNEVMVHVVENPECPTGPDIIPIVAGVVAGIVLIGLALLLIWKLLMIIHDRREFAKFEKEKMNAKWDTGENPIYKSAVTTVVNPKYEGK
Experimental: (§1) For in vitro cell adhesion assays, compounds were dissolved in DMSO to make a series of stock solutions such that a 1:100 dilution in assay buffer would yield the desired final working concentrations in 1% DMSO (vehicle). Human VCAM-1 and ICAM-1 were purchased from R&D Systems (Minneapolis, MN). The Jurkat (VCAM-1 assays) and HSB (ICAM-1 assays) cell lines were obtained from American Type Culture Collection (Manassas, VA) and were maintained in recommended culture media.
(§2) Assays were performed as previously described in Vanderslice et al., (2010), Biochem Biophys Res Commun 400, 619-624; and Vanderslice et al., (2013) J Biol Chem 288, 19414-19428. VCAM-1 or ICAM-1 ligand in 50 μL of 50 mM Tris-HCl (pH 7.4), 150 mM NaCl, (TBS) was added to wells of a 96-well plate and allowed to coat overnight at 4° C. To maximize the window to evaluate agonist activity, a sub-optimal coating concentration of ligand was used, typically 0.5 and 5 μg/mL in 50 μL TBS for VCAM-1 and ICAM-1 respectively. This ligand concentration corresponded approximately to that which would yield <5% adhesion as determined by dose-response curves. Briefly, 2×10^6 cells were labeled for 30 minutes with calcein-AM (Molecular Probes), washed, resuspended in binding buffer, and added to triplicate wells of ligand-coated plates (2×10^5 cells/well) that had been blocked with 2% BSA. After a 30-minute incubation at 37° C., the plates were washed 3 times with binding buffer, the adherent cells were lysed, and fluorescence was measured on a Tecan Safire^2 plate reader. The binding buffer was PBS with 1 mM MgCl2, 50% FBS for α4β1/VCAM-1 assays and PBS with 2 mM MgCl2, 5 mM EGTA, 50% FBS for αLβ2/ICAM-1 assays. EC50 is defined as the concentration of compound required to achieve 50% of the maximal response.

[2] = target: T2, αLβ2/ICAM-1 (Homo sapiens, UniProt P05107+P20701); assay: Static cell adhesion assay, HSB cells on ICAM-1 (LFA-1; LAD); assay type: cell-based; settings: RFU of compound / RFU of THI0349, both at the same concentration
T2 construct: The Jurkat (VCAM-1 assays) and HSB (ICAM-1 assays) cell lines were obtained from American Type Culture Collection; endogenous in cells; host or cells: HSB (ATCC)
T2 sequence (P20701 26-1170): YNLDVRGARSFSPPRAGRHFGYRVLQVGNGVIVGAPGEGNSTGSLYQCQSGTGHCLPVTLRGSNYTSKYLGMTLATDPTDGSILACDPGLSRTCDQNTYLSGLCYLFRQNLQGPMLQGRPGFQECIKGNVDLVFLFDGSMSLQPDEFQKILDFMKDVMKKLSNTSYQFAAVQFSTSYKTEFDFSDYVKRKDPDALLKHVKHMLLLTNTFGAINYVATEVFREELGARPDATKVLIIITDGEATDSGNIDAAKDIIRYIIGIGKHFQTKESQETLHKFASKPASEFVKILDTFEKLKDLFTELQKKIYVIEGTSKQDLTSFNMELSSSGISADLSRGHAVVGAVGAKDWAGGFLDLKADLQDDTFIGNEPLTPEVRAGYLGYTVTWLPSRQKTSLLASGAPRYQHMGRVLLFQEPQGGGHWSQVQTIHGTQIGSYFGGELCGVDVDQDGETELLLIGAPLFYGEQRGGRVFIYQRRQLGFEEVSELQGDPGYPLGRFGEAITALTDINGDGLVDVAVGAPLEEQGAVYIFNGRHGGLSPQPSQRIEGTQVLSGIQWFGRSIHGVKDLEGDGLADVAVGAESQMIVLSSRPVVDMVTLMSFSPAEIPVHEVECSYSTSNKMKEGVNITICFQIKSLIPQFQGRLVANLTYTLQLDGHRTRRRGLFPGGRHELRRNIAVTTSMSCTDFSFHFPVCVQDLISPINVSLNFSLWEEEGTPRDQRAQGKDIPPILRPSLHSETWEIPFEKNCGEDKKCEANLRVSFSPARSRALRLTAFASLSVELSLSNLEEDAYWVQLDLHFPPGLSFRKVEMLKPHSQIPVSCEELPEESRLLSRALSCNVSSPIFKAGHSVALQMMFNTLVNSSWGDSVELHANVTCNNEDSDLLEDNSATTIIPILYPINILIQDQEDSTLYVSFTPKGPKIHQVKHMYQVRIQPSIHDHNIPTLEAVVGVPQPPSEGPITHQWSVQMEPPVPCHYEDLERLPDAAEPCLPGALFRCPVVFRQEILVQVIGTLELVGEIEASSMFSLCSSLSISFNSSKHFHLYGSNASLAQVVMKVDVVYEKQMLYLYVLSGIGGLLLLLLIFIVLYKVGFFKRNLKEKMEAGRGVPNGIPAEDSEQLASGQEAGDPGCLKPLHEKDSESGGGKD
T2 sequence (P05107 23-769): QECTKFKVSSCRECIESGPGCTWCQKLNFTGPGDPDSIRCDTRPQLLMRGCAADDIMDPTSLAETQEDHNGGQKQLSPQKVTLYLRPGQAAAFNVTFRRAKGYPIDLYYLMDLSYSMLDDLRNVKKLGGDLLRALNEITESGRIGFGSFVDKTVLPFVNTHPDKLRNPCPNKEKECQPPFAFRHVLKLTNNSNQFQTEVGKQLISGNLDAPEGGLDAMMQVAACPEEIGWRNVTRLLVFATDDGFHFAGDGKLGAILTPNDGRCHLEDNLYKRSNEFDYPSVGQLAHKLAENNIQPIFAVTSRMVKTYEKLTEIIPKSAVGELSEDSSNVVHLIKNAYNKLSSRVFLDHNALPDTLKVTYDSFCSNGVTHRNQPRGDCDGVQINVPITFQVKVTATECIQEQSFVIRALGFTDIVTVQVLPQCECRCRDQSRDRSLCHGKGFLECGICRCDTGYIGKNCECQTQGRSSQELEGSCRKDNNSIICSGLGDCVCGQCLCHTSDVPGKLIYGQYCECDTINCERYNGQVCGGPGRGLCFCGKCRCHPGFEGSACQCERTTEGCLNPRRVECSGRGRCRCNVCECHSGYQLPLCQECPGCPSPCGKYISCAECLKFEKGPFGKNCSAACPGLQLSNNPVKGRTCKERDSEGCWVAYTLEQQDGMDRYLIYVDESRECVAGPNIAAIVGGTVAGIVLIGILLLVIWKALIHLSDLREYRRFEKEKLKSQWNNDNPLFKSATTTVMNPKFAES
Experimental: as §1, §2
In relation to LAD (Leukocyte Adhesion Deficiency), LFA-1 ratios are determined by dividing the relative fluorescence units (RFU) of each compound at a concentration of 3 μM over that of the reference standard of THI0349, also at 3 μM, (RFU Compound/RFU of THI0349). Log Ps were calculated by either Chemdraw® version 12 (CambridgeSoft) or ACD/Chemsketch® (ACD/Labs).

SMILES	Group against VCAM [1]	LAD Raw Fluorescence Units against LFA-1; Dose 3 µM; Ratio of raw counts Compound/THI0349 [2]
COc1cccc(COCCOCc2csc(N(Cc3cccc(OC)c3)Cc3cccc(OC)c3)n2)c1 [Compound 57, N,N-bis(3-methoxybenzyl)-4-((2-(3-methoxybenzyloxy)ethoxy)methyl)thiazol-2-amine]	I (Group I maintains at least the same potency or better up to more than twice that of the EC50 of THI0349 ran on the same plate)	0.25
COc1ccc(CCNC(=O)c2coc(N(Cc3cccc(OC)c3)Cc3cccc(OC)c3)n2)cc1 [Compound 19, 2-(bis(3-methoxybenzyl)amino)-N-(4-methoxyphenethyl)oxazole-4-carboxamide]	II (Group II is more than twice that of THI0349 but less than five times THI0349's EC50)	0.12
COc1cccc(CN(Cc2cccc(OC)c2)c2nc(COCCN3CCCCC3)cs2)c1 [Compound 65, N,N-bis(3-methoxybenzyl)-4-((2-(piperidin-1-yl)ethoxy)methyl)thiazol-2-amine]	I (Group I maintains at least the same potency or better up to more than twice that of the EC50 of THI0349 ran on the same plate)	0.29
COc1cccc(CN(Cc2cccc(OC)c2)c2nc(COCCN(C)C)cs2)c1 [Compound 82, 4-((2-(dimethylamino)ethoxy)methyl)-N,N-bis(3-methoxybenzyl)thiazol-2-amine]	II (Group II is more than twice that of THI0349 but less than five times THI0349's EC50)	0.05
COc1ccc(CN(Cc2ccc(OC)cc2)c2nc(COCCOCCO)cs2)cc1 [Compound 34, 2-(2-((2-(bis(4-methoxybenzyl)amino)thiazol-4-yl)methoxy)ethoxy)ethanol]	III (Group III more than five times the EC50 of THI0349)	0.34
COc1cccc(CN(C)c2nc(C)cs2)c1 [Compound 100, N-(3-methoxybenzyl)-N,4-dimethylthiazol-2-amine]	III (Group III more than five times the EC50 of THI0349)	0.05
CCOC(=O)c1csc(N(Cc2cccc(OC)c2)Cc2ccc3[nH]ncc3c2)n1 [Compound 116, ethyl 2-(((1H-indazol-5-yl)methyl)(3-methoxybenzyl)amino)thiazole-4-carboxylate]	III (Group III more than five times the EC50 of THI0349)	0.09
COc1cccc(COc2cc(C)n(N(Cc3cccc(OC)c3)Cc3cccc(OC)c3)c(=O)c2)c1 [Compound 127, 1-(bis(3-methoxybenzyl)amino)-4-((3-methoxybenzyl)oxy)-6-methylpyridin-2(1H)-one]	II (Group II is more than twice that of THI0349 but less than five times THI0349's EC50)	0.75
COc1cccc(CN(Cc2cccc(OC)c2)c2nc(COCCOc3cccc(C#N)c3)cs2)c1 [Compound 50, 3-(2-((2-(bis(3-methoxybenzyl)amino)thiazol-4-yl)methoxy)ethoxy)benzonitrile]	III (Group III more than five times the EC50 of THI0349)	1.2
COc1cccc(CN(Cc2cccc(OC)c2)c2nc(COCCOCCOCc3ccccc3)cs2)c1 [Compound 53, 4-((2-(2-(benzyloxy)ethoxy)ethoxy)methyl)-N,N-bis(3-methoxybenzyl)thiazol-2-amine]	I (Group I maintains at least the same potency or better up to more than twice that of the EC50 of THI0349 ran on the same plate)	1.06
COc1cccc(CN(Cc2cccc(OC)c2)c2nc(CN3CCCCC3)cs2)c1 [Compound 68, N,N-bis(3-methoxybenzyl)-4-(piperidin-1-ylmethyl)thiazol-2-amine]	II (Group II is more than twice that of THI0349 but less than five times THI0349's EC50)	1.6
COCCOc1cccc(CN(Cc2cccc(OC)c2)c2nc(CN3CCOCC3)cs2)c1 [Compound 74, N-(3-methoxybenzyl)-N-(3-(2-methoxyethoxy)benzyl)-4-(morpholinomethyl)thiazol-2-amine]	I (Group I maintains at least the same potency or better up to more than twice that of the EC50 of THI0349 ran on the same plate)	0.3
COc1cccc(CN(Cc2cccc(OC)c2)c2nc(CCN3CCOCC3)cs2)c1 [Compound 84, N,N-bis(3-methoxybenzyl)-4-(2-morpholinoethyl)thiazol-2-amine]	I (Group I maintains at least the same potency or better up to more than twice that of the EC50 of THI0349 ran on the same plate)	0.14
COc1cccc(CN(Cc2ccc(-n3cccn3)cc2)c2nc(C)cs2)c1 [Compound 98, N-(4-(1H-pyrazol-1-yl)benzyl)-N-(3-methoxybenzyl)-4-methylthiazol-2-amine]	III (Group III more than five times the EC50 of THI0349)	0.03
COc1cccc(CN(Cc2cccc(OC)c2)c2nc(COCCOCCOc3cccc(C#N)c3)cs2)c1 [Compound 45, 3-(2-(2-((2-(bis(3-methoxybenzyl)amino)thiazol-4-yl)methoxy)ethoxy)ethoxy)benzonitrile]	I (Group I maintains at least the same potency or better up to more than twice that of the EC50 of THI0349 ran on the same plate)	0.76
COc1cccc(CN(Cc2cccc(OC)c2)c2nc(COCCOCCN3CCCCC3)cs2)c1 [Compound 62, N,N-bis(3-methoxybenzyl)-4-((2-(2-(piperidin-1-yl)ethoxy)ethoxy)methyl)thiazol-2-amine]	I (Group I maintains at least the same potency or better up to more than twice that of the EC50 of THI0349 ran on the same plate)	0.37
COC(=O)c1nc(N(Cc2cccc(OC)c2)Cc2cccc(OC)c2)sc1C [Compound 101, methyl 2-(bis(3-methoxybenzyl)amino)-5-methylthiazole-4-carboxylate]	II (Group II is more than twice that of THI0349 but less than five times THI0349's EC50)	0.03
CCOC(=O)c1csc(N(Cc2ccc(-n3ccnc3)cc2)Cc2cccc(OC)c2)n1 [Compound 113, ethyl 2-((4-(1H-imidazol-1-yl)benzyl)(3-methoxybenzyl)amino)thiazole-4-carboxylate]	II (Group II is more than twice that of THI0349 but less than five times THI0349's EC50)	0.64
COc1cccc(CN(Cc2ccc3[nH]ncc3c2)c2nc(CN3CCOCC3)cs2)c1 [Compound 77, N-((1H-indazol-5-yl)methyl)-N-(3-methoxybenzyl)-4-(morpholinomethyl)thiazol-2-amine]	II (Group II is more than twice that of THI0349 but less than five times THI0349's EC50)	0.34
COc1ccc(CCCOCc2coc(N(Cc3cccs3)Cc3cccs3)n2)cc1 [Compound 24, 4-((3-(4-methoxyphenyl)propoxy)methyl)-N,N-bis(thiophen-2-ylmethyl)oxazol-2-amine]	II (Group II is more than twice that of THI0349 but less than five times THI0349's EC50)	0.85
CCOC(=O)c1csc(N(Cc2cccc(OC)c2)Cc2cccc(-n3cccn3)c2)n1 [Compound 119, ethyl 2-((3-(1H-pyrazol-1-yl)benzyl)(3-methoxybenzyl)amino)thiazole-4-carboxylate]	II (Group II is more than twice that of THI0349 but less than five times THI0349's EC50)	0.2
